Literature values as cited in article PMC2234480 (The Journal of General Physiology, 2003).

System: CLC-0
Conditions: ref Pusch et al., 2001

Compound: CCC(Oc1ccc(Cl)cc1)C(=O)O (centres unmarked) [CPB, p-chlorophenoxy-butyric acid]
- relief of block at positive voltages (5 mM CPB, V > 40 mV): complete unblock
- affinity for closed channels (model from macroscopic and single-channel analysis): submillimolar affinity
